Assay results from ChEMBL document CHEMBL5729370 (2022).

Target: T1, Mitogen-activated protein kinase kinase kinase 5 (Homo sapiens, UniProt Q99683)
T1 sequence (Q99683 whole entry): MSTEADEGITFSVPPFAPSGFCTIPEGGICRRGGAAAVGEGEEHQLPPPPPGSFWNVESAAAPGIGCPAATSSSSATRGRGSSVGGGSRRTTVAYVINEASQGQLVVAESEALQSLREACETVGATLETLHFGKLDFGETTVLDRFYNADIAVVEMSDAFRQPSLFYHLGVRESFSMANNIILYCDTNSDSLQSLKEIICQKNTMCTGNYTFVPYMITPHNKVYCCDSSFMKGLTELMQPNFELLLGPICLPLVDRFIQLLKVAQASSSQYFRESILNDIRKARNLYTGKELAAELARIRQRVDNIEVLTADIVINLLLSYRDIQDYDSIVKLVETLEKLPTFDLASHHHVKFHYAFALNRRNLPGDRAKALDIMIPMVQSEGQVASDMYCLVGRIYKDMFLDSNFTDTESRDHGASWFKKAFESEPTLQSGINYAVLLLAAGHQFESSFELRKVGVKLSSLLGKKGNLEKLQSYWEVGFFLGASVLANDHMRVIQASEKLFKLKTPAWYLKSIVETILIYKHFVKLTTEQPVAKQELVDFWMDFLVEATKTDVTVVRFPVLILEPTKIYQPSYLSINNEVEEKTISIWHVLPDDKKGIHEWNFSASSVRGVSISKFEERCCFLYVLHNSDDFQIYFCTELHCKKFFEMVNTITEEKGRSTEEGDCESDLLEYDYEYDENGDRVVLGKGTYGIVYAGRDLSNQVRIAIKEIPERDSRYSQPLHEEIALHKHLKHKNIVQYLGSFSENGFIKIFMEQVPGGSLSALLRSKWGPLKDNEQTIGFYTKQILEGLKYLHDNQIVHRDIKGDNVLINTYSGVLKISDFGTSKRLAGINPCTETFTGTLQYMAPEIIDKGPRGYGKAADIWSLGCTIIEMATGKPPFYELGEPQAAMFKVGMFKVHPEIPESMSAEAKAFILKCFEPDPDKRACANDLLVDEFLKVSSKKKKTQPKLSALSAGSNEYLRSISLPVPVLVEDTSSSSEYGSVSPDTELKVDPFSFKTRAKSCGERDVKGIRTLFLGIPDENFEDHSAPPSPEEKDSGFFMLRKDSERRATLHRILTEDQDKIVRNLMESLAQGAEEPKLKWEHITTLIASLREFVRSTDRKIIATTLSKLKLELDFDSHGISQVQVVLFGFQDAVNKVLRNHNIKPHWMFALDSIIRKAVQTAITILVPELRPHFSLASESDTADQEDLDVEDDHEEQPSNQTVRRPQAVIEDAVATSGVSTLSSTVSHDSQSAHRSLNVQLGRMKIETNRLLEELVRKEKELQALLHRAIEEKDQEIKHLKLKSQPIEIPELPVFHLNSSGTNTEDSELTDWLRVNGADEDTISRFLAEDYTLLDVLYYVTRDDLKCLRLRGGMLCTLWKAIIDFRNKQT
Assay: HTRF KinEASE Assay: ASK1 was purchased from Thermofisher (Catalogue #PV4011), ATP was purchased from Sigma (Catalogue #A7699), HTRF® KinEASE™ Assay System was obtained from Cisbio (Bedford, Mass.). ½ Area plate was purchased from Perkin Elmer (Catalogue ##6005560). HTRF® KinEASE™-STK is a generic method for measuring serine/threonine kinase activities using a time-resolved fluorescence resonance energy transfer (TR-FRET) immunoassay. The IC50 value for each compound was determined in the presence of compound (various concentration from 0 to 10 μM) and a fixed amount of ATP and peptide substrates. The test compound, 1 μM STK3 peptide substrate, and 5 μM of ASK1 kinase are incubated with kinase reaction buffer containing 50 mM HEPES Ph 7.5, 0.01% BRIJ-35, 10 mM MgCl2, and 1 mM EGTA for 30 minutes. 100 μM ATP is added to start kinase reaction and incubated for 3 hours. The STK3-antibody labeled with Eu3+-Cryptate and 125 nM streptavidin-XL665 are mixed in a single addition with stop reagents provided by the Cisbio kit used to stop the kinase reaction. Fluorescence is detected using an Envision Multilabeled 2014 reader from PerkinElmer. The Fluorescence is measured at 615 nm (Cryptate) and 665 nm (XL665) and a ratio of 665 nm/615 nm is calculated for each well. The resulting TR-FRET is proportional to the phosphorylation level. Staurosporine was used as the positive control. IC50 was determined by Xlfit 5.3.
Type: single protein

IC50	Compound
< 0.00125 µM	CCOC(=O)N1CCc2cc(OC)c(C(=O)Nc3cccc(-c4nnc5n4C(C)(C)CC5)n3)cc2C1
< 0.00125 µM	CCOC(=O)N1CCc2cc(OC)c(C(=O)Nc3cccc(-c4nnc5n4[C@H](C)CC5)n3)cc2C1
> 1 µM	CCOC(=O)N1CCc2cnc(C(=O)Nc3cccc(-c4nnc5n4CCCC5)n3)cc2C1
> 1 µM	CCOC(=O)N1CCc2cc(F)c(C(=O)Nc3cccc(-c4nnc5n4CCCC5)n3)cc2C1

Compound	IC50
CCOC(=O)N1CCc2cc(OC)c(C(=O)Nc3cccc(-c4nnc5n4CCCC5)n3)cc2C1	0.01 to 0.1 µM
